Experiments:
Type in all cases: in vivo
[1] = test system: winter barley (Hordeum vulgare); assay: Test C pre-/postemergence plant response
Outline: (§1)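 Plant response was judged by eye against untreated controls following 15 to 25 days in a controlled growth environment, using 0 for no effect and 100 for complete control. Treatments were made both preemergence and postemergence, the latter on plants of 1- to 4-leaf stage.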

[2] = test system: wild oat (Avena fatua); assay: Test C pre-/postemergence plant response
Outline: as §1

[3] = test system: green foxtail (Setaria viridis); assay: Test C pre-/postemergence plant response
Outline: as §1

[4] = test system: wild mustard (Sinapis arvensis); assay: Test C pre-/postemergence plant response
Outline: as §1

[5] = test system: spring barley (Hordeum vulgare); assay: Test C pre-/postemergence plant response
Outline: as §1

[6] = test system: spring wheat (Triticum aestivum); assay: Test C pre-/postemergence plant response
Outline: as §1

[7] = test system: annual bluegrass (Poa annua); assay: Test C pre-/postemergence plant response
Outline: as §1

[8] = test system: pigweed (Amaranthus retroflexus); assay: Test C pre-/postemergence plant response
Outline: as §1

[9] = test system: winter wheat (Triticum aestivum); assay: Test C pre-/postemergence plant response
Outline: as §1

[10] = test system: windgrass (Apera spica-venti); assay: Test C pre-/postemergence plant response
Outline: as §1

[11] = test system: Italian ryegrass (Lolium multiflorum); assay: Test C pre-/postemergence plant response
Outline: as §1

[12] = test system: blackgrass (Alopecurus myosuroides); assay: Test C pre-/postemergence plant response
Outline: as §1

[13] = test system: downy bromegrass (Bromus tectorum); assay: Test C pre-/postemergence plant response
Outline: as §1

[14] = test system: canarygrass (Phalaris minor); assay: Test C pre-/postemergence plant response
Outline: as §1

[15] = test system: chickweed (Stellaria media); assay: Test B postemergence plant response; conditions: Postemergence
Outline: (§2)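 Following treatment of plants 2 to 18 cm high after emergence, pots were held under glass for 13 to 15 days; efficacy was then graded visually, 100 denoting complete control and a dash no test result.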

[16] = test system: canarygrass (Phalaris minor); assay: Test B postemergence plant response; conditions: Postemergence
Outline: as §2

[17] = Postemergence, 8 g ai/ha, scale 0 to 100, 0 no effect, 100 complete control
[18] = Postemergence, 16 g ai/ha, scale 0 to 100, 0 no effect, 100 complete control
[19] = Postemergence, 31 g ai/ha, scale 0 to 100, 0 no effect, 100 complete control
[20] = Postemergence, 62 g ai/ha, scale 0 to 100, 0 no effect, 100 complete control
[21] = Preemergence, 8 g ai/ha, scale 0 to 100 (0 no effect, 100 complete control)
[22] = Preemergence, 16 g ai/ha, scale 0 to 100 (0 no effect, 100 complete control)
[23] = Preemergence, 31 g ai/ha, scale 0 to 100 (0 no effect, 100 complete control)
[24] = Preemergence, 62 g ai/ha, scale 0 to 100, 0 no effect, 100 complete control
[25] = 31 g ai/ha, scale 0 to 100, 0 no effect, 100 complete control

CCc1cc(-c2ccc(C(F)(F)F)cc2)nn1-c1c(O)cnn(C)c1=O [Compound 11, 4-[5-ethyl-3-[4-(trifluoromethyl)phenyl]-1H-pyrazol-1-yl]-5-hydroxy-2-methyl-3(2H)-pyridazinone]
95: Plant response rating, Barley, Winter [1, 19] | Plant response rating, Barley, Winter [1, 24] | Plant response rating, Foxtail, Green [3, 17] | Plant response rating, Barley, Spring [5, 18] | Plant response rating, Barley, Spring [5, 19] | Plant response rating, Windgrass [10, 17] | Plant response rating, Windgrass [10, 18] | Plant response rating, Windgrass [10, 19] | Plant response rating, Windgrass [10, 20]
80: Plant response rating, Barley, Spring [5, 17] | Plant response rating, Bromegrass, Downy [13, 18] | Plant response rating, Canarygrass ([16]; 16 g ai/ha, scale 0 to 100)
30: Plant response rating, Barley, Spring [5, 22] | Plant response rating, Bluegrass [7, 24]
98: Plant response rating, Oat, Wild [2, 21] | Plant response rating, Oat, Wild [2, 22] | Plant response rating, Oat, Wild [2, 23] | Plant response rating, Foxtail, Green [3, 18] | Plant response rating, Barley, Spring [5, 20] | Plant response rating, Wheat, Spring [6, 19] | Plant response rating, Wheat, Spring [6, 20] | Plant response rating, Ryegrass, Italian [11, 17] | Plant response rating, Ryegrass, Italian [11, 18] | Plant response rating, Ryegrass, Italian [11, 22] | Plant response rating, Bromegrass, Downy [13, 19] | Plant response rating, Bromegrass, Downy [13, 20] | Plant response rating, Canarygrass [14, 23]
15: Plant response rating, Bluegrass [7, 18] | Plant response rating, Bluegrass [7, 19] | Plant response rating, Pigweed [8, 24] | Plant response rating, Canarygrass [14, 21]
60: Plant response rating, Barley, Winter [1, 17] | Plant response rating, Wheat, Spring [6, 22]
0: Plant response rating, Mustard, Wild [4, 17] | Plant response rating, Mustard, Wild [4, 21] | Plant response rating, Mustard, Wild [4, 22] | Plant response rating, Mustard, Wild [4, 23] | Plant response rating, Mustard, Wild [4, 24] | Plant response rating, Bluegrass [7, 17] | Plant response rating, Bluegrass [7, 21] | Plant response rating, Pigweed [8, 17] | Plant response rating, Pigweed [8, 21] | Plant response rating, Pigweed [8, 22] | Plant response rating, Pigweed [8, 23] | Plant response rating, Chickweed ([15]; 16 g ai/ha, scale 0 to 100) | Plant response rating, Chickweed [15, 25] | Plant response rating, Chickweed ([15]; 62 g ai/ha, scale 0 to 100) | Plant response rating, Chickweed ([15]; 125 g ai/ha, scale 0 to 100)
40: Plant response rating, Barley, Winter [1, 22] | Plant response rating, Mustard, Wild [4, 20] | Plant response rating, Wheat, Winter [9, 22]
35: Plant response rating, Bromegrass, Downy [13, 21]
100: Plant response rating, Barley, Winter [1, 20] | Plant response rating, Oat, Wild [2, 17] | Plant response rating, Oat, Wild [2, 18] | Plant response rating, Oat, Wild [2, 19] | Plant response rating, Oat, Wild [2, 20] | Plant response rating, Oat, Wild [2, 24] | Plant response rating, Foxtail, Green [3, 19] | Plant response rating, Foxtail, Green [3, 20] | Plant response rating, Foxtail, Green [3, 21] | Plant response rating, Foxtail, Green [3, 22] | Plant response rating, Foxtail, Green [3, 23] | Plant response rating, Foxtail, Green [3, 24] | Plant response rating, Barley, Spring [5, 24] | Plant response rating, Wheat, Spring [6, 24] | Plant response rating, Wheat, Winter [9, 18] | Plant response rating, Wheat, Winter [9, 19] | Plant response rating, Wheat, Winter [9, 20] | Plant response rating, Wheat, Winter [9, 23] | Plant response rating, Wheat, Winter [9, 24] | Plant response rating, Windgrass [10, 21] | Plant response rating, Windgrass [10, 22] | Plant response rating, Windgrass [10, 23] | Plant response rating, Windgrass [10, 24] | Plant response rating, Ryegrass, Italian [11, 19] | Plant response rating, Ryegrass, Italian [11, 20] | Plant response rating, Ryegrass, Italian [11, 23] | Plant response rating, Ryegrass, Italian [11, 24] | Plant response rating, Blackgrass [12, 17] | Plant response rating, Blackgrass [12, 18] | Plant response rating, Blackgrass [12, 19] | Plant response rating, Blackgrass [12, 20] | Plant response rating, Blackgrass [12, 24] | Plant response rating, Bromegrass, Downy [13, 24] | Plant response rating, Canarygrass [14, 18] | Plant response rating, Canarygrass [14, 19] | Plant response rating, Canarygrass [14, 20] | Plant response rating, Canarygrass [14, 24] | Plant response rating, Canarygrass [16, 25] | Plant response rating, Canarygrass ([16]; 62 g ai/ha, scale 0 to 100) | Plant response rating, Canarygrass ([16]; 125 g ai/ha, scale 0 to 100)
85: Plant response rating, Ryegrass, Italian [11, 21] | Plant response rating, Blackgrass [12, 21]
20: Plant response rating, Barley, Winter [1, 21] | Plant response rating, Barley, Spring [5, 21] | Plant response rating, Bluegrass [7, 20] | Plant response rating, Bluegrass [7, 22] | Plant response rating, Pigweed [8, 20] | Plant response rating, Wheat, Winter [9, 21]
10: Plant response rating, Pigweed [8, 18] | Plant response rating, Pigweed [8, 19]
90: Plant response rating, Wheat, Spring [6, 18] | Plant response rating, Wheat, Winter [9, 17] | Plant response rating, Blackgrass [12, 22] | Plant response rating, Blackgrass [12, 23]
25: Plant response rating, Mustard, Wild [4, 18] | Plant response rating, Mustard, Wild [4, 19]
65: Plant response rating, Wheat, Spring [6, 17] | Plant response rating, Bromegrass, Downy [13, 22] | Plant response rating, Canarygrass [14, 17]
50: Plant response rating, Wheat, Spring [6, 21] | Plant response rating, Bromegrass, Downy [13, 17]
75: Plant response rating, Barley, Winter [1, 23] | Plant response rating, Wheat, Spring [6, 23] | Plant response rating, Canarygrass [14, 22]
70: Plant response rating, Barley, Winter [1, 18] | Plant response rating, Barley, Spring [5, 23] | Plant response rating, Bromegrass, Downy [13, 23]

Reference: patent US20100267561A1, “HERBICIDAL PYRIDAZINONE DERIVATIVES” (priority 2007, published 2010)
